Key:
[1] = test system: stroke rats (MCAo); assay: ANA12 antagonism of psilocybin-mediated neuroprotection in MCAo stroke rats; format: in vivo, rat
[2] = test system: primary cortical neuronal culture; assay: ANA12 antagonism of psilocybin-mediated protection in primary cortical neuronal culture; conditions: Glu 100 μM + Psi 10 μM + ANA 10 μM; p<0.05, one-way ANOVA
Source text: A selective BDNF antagonist ANA12 was included on D10 along with psilocybin and glutamate (see timeline in FIG. 6C).

[3] = test system: stroke rats (MCAo); assay: Pre-stroke i.c.v. treatment, brain infarction by TTC staining in MCAo stroke rats; format: in vivo, rat; conditions: i.c.v. pretreatment, day 2
[4] = test system: MAP2, synaptophysin (SYP), IBA1, and BDNF expression; assay: Post-stroke i.p. treatment, qRT-PCR of lesioned cerebral cortex; format: in vivo, rat; conditions: 1 mg/kg/d i.p. days 3-7, cortex day 9
[5] = non-lesioned brain; cited from earlier work
[6] = test system: stroke rats (MCAo); assay: Post-stroke i.p. treatment, neurological and locomotor tests in MCAo stroke rats; conditions: 1 mg/kg/d i.p. days 3 to 7 after MCAo
Procedure: In the posttreatment group, Psilocybin (1 mg/kg/day, n=7) or vehicle (n=6) was administered i.p. from day 3 to day 7.
(b) Neurological deficits were scored by the Bederson's neurological test (35, 36). In a postural reflex test, rats were examined for the degree of abnormal posture when suspended by 20-30 cm above the testing table. They were scored according to the following criteria. • 0 Rats extend both forelimbs straight. No observable deficit. • 1 Rats keep the one forelimb to the breast and extend the other forelimb straight. • 2 Rats show decreased resistance to lateral push in addition to behavior in score 1 without circling. • 3 Rats twist the upper half of their body in addition to behavior in score 2.
(§1) Locomotion was measured using an infrared activity monitor (Accuscan, Columbus, OH) as we previously described (19, 37). Rats were individually placed in a 3D infrared behavior chamber (42×42×21 cm) for 60 min. Four parameters were recorded: (a) horizontal activity (HACTV, the total number of beam interruptions that occurred in the horizontal sensors), (b) total distance traveled (TOTDIST, the distance, in centimeters, traveled by the animals), and (c) No. of movements (MOVNO), (d) horizontal movements time (MOVTIME).
Psilocybin (1 mg/kg/d, n=7) or vehicle (n=6) was delivered systemically (i.p.) from days 3 to 7 after the MCAo. Neurological and locomotor tests were examined on day 9 (FIG. 4A).

[7] = test system: stroke rats (MCAo); assay: Pre-stroke i.c.v. treatment, neurological and locomotor tests in MCAo stroke rats; conditions: D2
Procedure: Psilocybin or vehicle was given before or after the MCAo. For the pretreatment, animals were anesthetized. Psilocybin (100 μM×20 μL, n=7) or vehicle (saline, 20 μl, n=7) was administered intracerebroventricularly (i.c.v., AP, −0.8 mm; LV, −1.5 mm; DV, −3.5 mm) at 15 min before MCAo through a Hamilton microsyringe. The speed of injection was controlled by a syringe pump (Micro 4, WPI, Sarasota, FL).
The right middle cerebral artery (MCA) was transiently occluded (MCAo) as we previously described (33). In brief, the bilateral common carotids were clamped with nontraumatic arterial clips. The right MCA was ligated with a 10-O suture to generate focal infarction in the cerebral cortex. The ligature and clips were removed after 60 min ischemia to generate reperfusion injury. Core body temperature was monitored with a thermistor probe and maintained at 37° C. with a heating pad during anesthesia. After recovery from anesthesia, body temperature was maintained at 37° C. using a temperature-controlled incubator.
as §1
A total of 14 adult rats were used for this analysis. Psilocybin (100 μM×20 μL, n=7) or vehicle (saline, 20 μL, n=7) was delivered to the lateral ventricle (i.c.v., coordinates: AP:0.8 mm, Lat:1.5 mm, DV −3.5 mm) at 10-15 min prior to the a 60-min MCAo. Behavioral tests were conducted two days (or D2) after MCAo (FIG. 2A). […] Locomotoractivity was examined in infra-red activity chambers for one hour.

[8] = test system: rat primary cortical neuronal culture; assay: Glutamate neurotoxicity in primary cortical neuronal culture (MAP2 immunocytochemistry)
[9] = test system: rat model of stroke (MCAo); conditions: intraperitoneal injection prior to MCAo; cited from earlier work
[10] = ANA12 100 μM×20 μL/d intranasally days 0 and 1, Psilocybin i.c.v. prior to MCAo
[11] = stroke reduced expression, p<0.05

In the case of `O=C(Nc1ccccc1C(=O)NC1CCCCNC1=O)c1cc2ccccc2s1` (centres unmarked) [ANA12], the “Psilocybin-mediated improvement in horizontal activity” value [1, 10] is reported as “significantly antagonized”, the “Psilocybin-mediated improvement in total distance traveled” value [1, 10] is reported as “significantly antagonized” and the “psilocybin-mediated improvement in neurological behavior” value [1, 10] is reported as “significantly antagonized”. For the same molecule, the “psilocybin-mediated reduction in brain infarction” value ([1]; ANA12 100 μM×20 μL/d intranasally days 0 and 1 after MCAo, Psilocybin i.c.v. 100 μM×20 μl 15 min prior) was “significantly antagonized” and the “psilocybin-mediated improvement in MAP2-ir” value [2] was “significantly antagonized”.
For `CN(C)CCc1c[nH]c2cccc(OP(=O)(O)O)c12` [Psilocybin, 4-phosphoryloxy-N,N-dimethyltryptamine], the “area of infarction in each 2-mm slice” value ([3]; p<0.001, two-way ANOVA, difference mainly on rostral slices) was “significantly lowered infarction”, the “infarct volume (TTC staining)” value ([3]; typical TTC staining FIG. 3A) was “reduced the infarct volume” and the “expression of BDNF in the lesioned brain (qRTPCR)” value ([4]; p=0.01, stroke vs. stroke+PSI) was “significantly upregulated”. The “expression of MAP2 in the stroke brain (qRTPCR)” value [4, 11] was “significantly normalized”, the “expression of synaptophysin (SYP) in the stroke brain (qRTPCR)” value [4, 11] was “significantly normalized” and the “expression of IBA1 in the stroke brain (qRTPCR)” value ([4]; stroke upregulated expression, p<0.05) was “significantly normalized”. For the same molecule, the “crossing of the blood-brain barrier” value [5] was “inefficient to freely cross the blood-brain barrier”, the horizontal activity ([6]; day 9, p=0.011) was “increased” and the total distance traveled ([6]; day 9, p=0.018) was “increased”. The movement number ([6]; day 9, p=0.023) was “increased”, the movement time ([6]; day 9, p=0.034) was “increased” and the body asymmetry ([6]; day 9, p=0.0445) was “significantly reduced”. For the same molecule, the “Bederson's neurological test” value ([6]; tested day 9, p=0.0421) was “significantly reduced”, the body asymmetry ([7]; 100 μM×20 μL i.c.v. 10-15 min prior to MCAo, p=0.00345) was “significantly decreased” and the “horizontal activity (HACTV)” value ([7]; 100 μM×20 μL i.c.v. prior to MCAo, one hour, p=0.0246) was “significantly increased”. For the same molecule, the “movement time (MOVTIME)” value ([7]; 100 μM×20 μL i.c.v. prior to MCAo, p=0.00351) was “significantly increased”, the “total distance traveled (TOTODIST)” value ([7]; 100 μM×20 μL i.c.v. prior to MCAo, p=0.0103) was “significantly increased” and the “movement number (MOVNO)” value ([7]; 100 μM×20 μL i.c.v. prior to MCAo, p=0.0479) was “significantly increased”. For the same molecule, the “Glu-mediated neuronal loss (MAP2-ir)” value ([8]; Glu 100 μM, Psi 10 μM, photomicrographs FIG. 1A) was “antagonized”.
For `CN(C)CCc1c[nH]c2ccccc12` [DMT, N,N-dimethyltryptamine], the BDNF expression [9] is listed as “increased”, the brain infarction [9] is listed as “reduced” and the brain inflammation [9] is listed as “reduced”. The staircase behavior [9] was “improved”.
In the case of `N[C@@H](CCC(=O)O)C(=O)O` [Glutamate], the “MAP2 immunoreactivity (MAP2-ir)” value ([8]; Glutamate 100 μM added on DIV10, fixed DIV12, p<0.001) is reported as “significantly reduced”.

— US20250352563A1, “Method and Use of Psilocybin in the Prevention and Treatment of Stroke” (Revive Therapeutics Ltd, priority 2022, published 2025)
